From the supplement of paper PMC13380429

Columns and labels:
[1] = tested on: A549-ACE2 infected with SARS-CoV-2; experiment: SARS-CoV-2 infection rate relative to DMSO; higher = more infection; conditions: 24 h
Calu-3 [2] = experiment: drug sensitivity score (DSS) for viability; higher = more toxic; extreme values may be limits of the assay; conditions: 72 h
HepG2 [3] = experiment: as above; conditions: 72 h
U2OS [4] = experiment: as above; conditions: 72 h
Caco-2 [5] = experiment: as above; conditions: 72 h
Vero E6 [6] = experiment: as above; conditions: 72 h
[7] = tested on: A549-ACE2 infected with SARS-CoV-2; experiment: cell count relative to DMSO; higher = less toxic; conditions: 24 h
[8] = tested on: A549-ACE2 infected with SARS-CoV-2; experiment: morphology score (similarity to uninfected cells); higher = more like uninfected cells; conditions: 24 h
A549-ACE2 [9] = experiment: drug-induced phospholipidosis relative to tamoxifen; higher = more phospholipidosis
A549-ACE2 [10] = experiment: phospholipidosis EC50; higher = less potent phospholipidosis inducer
U2OS [11] = experiment: relative viability EC50 (midpoint between 100% and the lowest measured viability); higher = less toxic; conditions: 72 h
Vero E6 [12] = experiment: as above; conditions: 72 h
Calu-3 [13] = experiment: cell viability relative to DMSO; higher = less toxic; conditions: 72 h
HepG2 [14] = experiment: as above; conditions: 72 h
U2OS [15] = experiment: as above; conditions: 72 h
Caco-2 [16] = experiment: as above; conditions: 72 h
Vero E6 [17] = experiment: as above; conditions: 72 h
Calu-3 [18] = experiment: relative viability EC50 (midpoint between 100% and the lowest measured viability); higher = less toxic; conditions: 72 h

CCSc1ccc2c(c1)N(CCCN1CCN(C)CC1)c1ccccc1S2 [thiethylperazine]
Conditions | SARS-CoV-2 infection rate [%] | cell count [%] | cell viability [%] | morphology score | phospholipidosis EC50 [µM]
A549-ACE2 [10], 24 h | – | – | – | – | 3.52
A549-ACE2 [10], 48 h | – | – | – | – | 5.17
A549-ACE2 [10], 72 h | – | – | – | – | 6.75
Caco-2 [16], 1 nM | – | – | 101 | – | –
Caco-2 [16], 10 nM | – | – | 95.4 | – | –
Caco-2 [16], 100 nM | – | – | 91.7 | – | –
Caco-2 [16], 1000 nM | – | – | 98.4 | – | –
Caco-2 [16], 10000 nM | – | – | 69.6 | – | –
Calu-3 [13], 1 nM | – | – | 101 | – | –
Calu-3 [13], 10 nM | – | – | 89.2 | – | –
Calu-3 [13], 100 nM | – | – | 95.9 | – | –
Calu-3 [13], 1000 nM | – | – | 110 | – | –
Calu-3 [13], 10000 nM | – | – | 59.9 | – | –
HepG2 [14], 1 nM | – | – | 98 | – | –
HepG2 [14], 10 nM | – | – | 100 | – | –
HepG2 [14], 100 nM | – | – | 101 | – | –
HepG2 [14], 1000 nM | – | – | 89.5 | – | –
HepG2 [14], 10000 nM | – | – | 55.6 | – | –
U2OS [15], 1 nM | – | – | 103 | – | –
U2OS [15], 10 nM | – | – | 102 | – | –
U2OS [15], 100 nM | – | – | 106 | – | –
U2OS [15], 1000 nM | – | – | 106 | – | –
U2OS [15], 10000 nM | – | – | 91.6 | – | –
Vero E6 [17], 1 nM | – | – | 97.7 | – | –
Vero E6 [17], 10 nM | – | – | 95.5 | – | –
Vero E6 [17], 100 nM | – | – | 95 | – | –
Vero E6 [17], 1000 nM | – | – | 102 | – | –
Vero E6 [17], 10000 nM | – | – | 83.2 | – | –
[1], 0.3 µM | 99 | – | – | – | –
[1], 3 µM | 40 | – | – | – | –
[1], 10 µM | 12 | – | – | – | –
[1], 30 µM | 61 | – | – | – | –
[7], 0.3 µM | – | 98 | – | – | –
[7], 3 µM | – | 116 | – | – | –
[7], 10 µM | – | 122 | – | – | –
[7], 30 µM | – | 17 | – | – | –
[8], 0.3 µM | – | – | – | 0.15 | –
[8], 3 µM | – | – | – | 0.81 | –
[8], 10 µM | – | – | – | 0.8 | –
[8], 30 µM | – | – | – | -0.01 | –

Conditions | drug sensitivity score | relative viability EC50 [µM]
Caco-2 [5] | 1.6 | –
Calu-3 [2] | 1.5 | –
HepG2 [3] | 3.9 | –
U2OS [4] | 0 | –
U2OS [11] | – | > 10
Vero E6 [6] | 0.3 | –
Vero E6 [12] | – | > 10

drug-induced phospholipidosis [%], A549-ACE2 [9]
Conditions | 0.3 µM | 0.833333 µM | 3.33333 µM | 6.66667 µM | 10 µM | 30 µM
24 h | 2.75 | 4.77 | 26.3 | 67.4 | 80 | 53.2
48 h | 3.55 | 4.25 | 19.4 | 77.1 | 97 | –
72 h | 4.26 | 5.76 | 19.6 | 70 | 104 | –

C[C@@H](NCCCc1cccc(C(F)(F)F)c1)c1cccc2ccccc12 [cinacalcet]
Conditions | SARS-CoV-2 infection rate [%] | cell count [%] | cell viability [%] | morphology score | phospholipidosis EC50 [µM]
A549-ACE2 [10], 24 h | – | – | – | – | 2.77
A549-ACE2 [10], 48 h | – | – | – | – | 4.97
A549-ACE2 [10], 72 h | – | – | – | – | 5.11
Caco-2 [16], 1 nM | – | – | 99.8 | – | –
Caco-2 [16], 10 nM | – | – | 96.4 | – | –
Caco-2 [16], 100 nM | – | – | 100 | – | –
Caco-2 [16], 1000 nM | – | – | 89.1 | – | –
Caco-2 [16], 10000 nM | – | – | 68.4 | – | –
Calu-3 [13], 1 nM | – | – | 109 | – | –
Calu-3 [13], 10 nM | – | – | 109 | – | –
Calu-3 [13], 100 nM | – | – | 101 | – | –
Calu-3 [13], 1000 nM | – | – | 98.6 | – | –
Calu-3 [13], 10000 nM | – | – | 7.3 | – | –
HepG2 [14], 1 nM | – | – | 98 | – | –
HepG2 [14], 10 nM | – | – | 102 | – | –
HepG2 [14], 100 nM | – | – | 87.9 | – | –
HepG2 [14], 1000 nM | – | – | 96.4 | – | –
HepG2 [14], 10000 nM | – | – | 66.3 | – | –
U2OS [15], 1 nM | – | – | 106 | – | –
U2OS [15], 10 nM | – | – | 95.8 | – | –
U2OS [15], 100 nM | – | – | 103 | – | –
U2OS [15], 1000 nM | – | – | 99.6 | – | –
U2OS [15], 10000 nM | – | – | 89.4 | – | –
Vero E6 [17], 1 nM | – | – | 102 | – | –
Vero E6 [17], 10 nM | – | – | 106 | – | –
Vero E6 [17], 100 nM | – | – | 104 | – | –
Vero E6 [17], 1000 nM | – | – | 101 | – | –
Vero E6 [17], 10000 nM | – | – | 82.2 | – | –
[1], 0.3 µM | 93 | – | – | – | –
[1], 3 µM | 59 | – | – | – | –
[1], 10 µM | 54 | – | – | – | –
[7], 0.3 µM | – | 96 | – | – | –
[7], 3 µM | – | 103 | – | – | –
[7], 10 µM | – | 87 | – | – | –
[8], 0.3 µM | – | – | – | 0.09 | –
[8], 3 µM | – | – | – | 0.67 | –
[8], 10 µM | – | – | – | 0.55 | –

Conditions | drug sensitivity score | relative viability EC50 [µM]
Caco-2 [5] | 2.9 | –
Calu-3 [2] | 5.3 | –
Calu-3 [18] | – | 3.06
HepG2 [3] | 2.2 | –
U2OS [4] | 0 | –
U2OS [11] | – | > 10
Vero E6 [6] | 0.4 | –
Vero E6 [12] | – | > 10

drug-induced phospholipidosis [%], A549-ACE2 [9]
Conditions | 0.3 µM | 0.833333 µM | 3.33333 µM | 6.66667 µM | 10 µM | 30 µM
24 h | 3.21 | 8.87 | 65.6 | 89.9 | 102 | 53.7
48 h | 2.84 | 6.54 | 45.1 | 87.9 | 107 | –
72 h | 4.18 | 6.97 | 37.3 | 82.3 | 102 | –
